For data set [1] the following is noted: Crystal; DTA.
Data set [2] can be described thus: xn = mol fraction of the nth substance listed. The conditions noted are these: 298.2 K, 101 kPa, Liquid; for viscosity: Capillary tube (Ostwald / Ubbelohde) method; for mass density: Pycnometric method; for electrical conductivity: conductivity meter.

SMILES strings stand for the structures. Numbers after ± are expanded uncertainties.

As to `C[N+](C)(C)CCO.[Cl-]` [choline chloride], the Normal melting temperature in data set [1] worked out at 304.1 ± 0.5 °C.

Take `Cc1ccccc1O` [2-methylphenol] + C[N+](C)(C)CCO.[Cl-]: the viscosity in data set [2] (x1 = 0.6667) is 207.41 ± 12 mPa·s; in data set [2] (x1 = 0.75) it was 77.65 ± 4 mPa·s; in data set [2] (x1 = 0.7963) it was 46.95 ± 2 mPa·s; in data set [2] (x1 = 0.8333) it was 34.9 ± 1.4 mPa·s; in data set [2] (x1 = 0.8571), 27.82 ± 1.1 mPa·s. The mass density came to 1077.6 ± 1.2 kg/m3 in data set [2] (x1 = 0.6667); 1070.7 ± 1.2 kg/m3 in data set [2] (x1 = 0.75); 1066.4 ± 1.2 kg/m3 in data set [2] (x1 = 0.7963); 1063.1 ± 1.2 kg/m3 in data set [2] (x1 = 0.8333); 1060.6 ± 1.2 kg/m3 in data set [2] (x1 = 0.8571). The electrical conductivity worked out at 0.083 ± 0.001 S/m in data set [2] (x1 = 0.6667); 0.121 ± 0.002 S/m in data set [2] (x1 = 0.75); 0.141 ± 0.002 S/m in data set [2] (x1 = 0.7963); 0.145 ± 0.002 S/m in data set [2] (x1 = 0.8333); 0.138 ± 0.002 S/m in data set [2] (x1 = 0.8571).

By viscosity is commonly meant the resistance of a fluid to flow. As usually defined, the mass density is mass per unit of volume.
